System: CCRF-CEM
Experiment: Growth inhibition of human CCRF-CEM cells assessed as cell growth at 10 uM incubated for 48 hrs by sulforhodamine B assay relative to control
Type: functional
Conditions: read-out: Activity

Q: Which growth at 10 µM does the source give for O=C1NCC(c2cc3ccccc3[nH]c2=O)Nc2ccccc21 (stereo not drawn) here?
A: Its growth at 10 µM is 110%.

System: A549
Experiment: Growth inhibition of human A549/ATCC cells assessed as cell growth at 10 uM incubated for 48 hrs by sulforhodamine B assay relative to control
Type: functional
Conditions: A549, 48 h, read-out: Activity

Q: How did the growth at 10 µM turn out when O=C1NCC(c2cc3ccccc3[nH]c2=O)Nc2ccccc21 (stereo not drawn) was run?
A: Its growth at 10 µM is 92.4%.

System: HOP-62
Experiment: Growth inhibition of human HOP62 cells assessed as cell growth at 10 uM incubated for 48 hrs by sulforhodamine B assay relative to control
Type: functional
Conditions: HOP-62, 48 h, read-out: Activity

Q: How did the growth at 10 µM turn out when O=C1NCC(c2cc3ccccc3[nH]c2=O)Nc2ccccc21 (stereo not drawn) was run?
A: The growth at 10 µM was 90.6%.

System: HOP-92
Experiment: Growth inhibition of human HOP92 cells assessed as cell growth at 10 uM incubated for 48 hrs by sulforhodamine B assay relative to control
Type: functional
Conditions: HOP-92, 48 h, read-out: Activity

Q: For O=C1NCC(c2cc3ccccc3[nH]c2=O)Nc2ccccc21 (stereo not drawn), which growth at 10 µM is on record?
A: Its growth at 10 µM is 104%.

System: NCI-H226
Experiment: Growth inhibition of human NCI-H226 cells assessed as cell growth at 10 uM incubated for 48 hrs by sulforhodamine B assay relative to control
Type: functional
Conditions: NCI-H226, 48 h, read-out: Activity

Q: Which growth at 10 µM does the source give for O=C1NCC(c2cc3ccccc3[nH]c2=O)Nc2ccccc21 (stereo not drawn) here?
A: The growth at 10 µM was 98.4%.

System: NCI-H23
Experiment: Growth inhibition of human NCI-H23 cells assessed as cell growth at 10 uM incubated for 48 hrs by sulforhodamine B assay relative to control
Type: functional
Conditions: NCI-H23, 48 h, read-out: Activity

Q: For O=C1NCC(c2cc3ccccc3[nH]c2=O)Nc2ccccc21 (stereo not drawn), which growth at 10 µM is on record?
A: Its growth at 10 µM is 97.4%.

System: NCI-H322M
Experiment: Growth inhibition of human NCI-H322M cells assessed as cell growth at 10 uM incubated for 48 hrs by sulforhodamine B assay relative to control
Type: functional
Conditions: read-out: Activity

Q: For O=C1NCC(c2cc3ccccc3[nH]c2=O)Nc2ccccc21 (stereo not drawn), which growth at 10 µM is on record?
A: Its growth at 10 µM is 100%.

System: NCI-H522
Experiment: Growth inhibition of human NCI-H522 cells assessed as cell growth at 10 uM incubated for 48 hrs by sulforhodamine B assay relative to control
Type: functional
Conditions: NCI-H522, 48 h, read-out: Activity

Q: Which growth at 10 µM does the source give for O=C1NCC(c2cc3ccccc3[nH]c2=O)Nc2ccccc21 (stereo not drawn) here?
A: The growth at 10 µM was 88.6%.

System: COLO 205
Experiment: Growth inhibition of human COLO205 cells assessed as cell growth at 10 uM incubated for 48 hrs by sulforhodamine B assay relative to control
Type: functional
Conditions: COLO 205, 48 h, read-out: Activity

Q: How did the growth at 10 µM turn out when O=C1NCC(c2cc3ccccc3[nH]c2=O)Nc2ccccc21 (stereo not drawn) was run?
A: The growth at 10 µM was 107%.

System: HCT-116
Experiment: Growth inhibition of human HCT116 cells assessed as cell growth at 10 uM incubated for 48 hrs by sulforhodamine B assay relative to control
Type: functional
Conditions: HCT-116, 48 h, read-out: Activity

Q: Which growth at 10 µM does the source give for O=C1NCC(c2cc3ccccc3[nH]c2=O)Nc2ccccc21 (stereo not drawn) here?
A: Its growth at 10 µM is 92.6%.

System: HT-29
Experiment: Growth inhibition of human HT-29 cells assessed as cell growth at 10 uM incubated for 48 hrs by sulforhodamine B assay relative to control
Type: functional
Conditions: HT-29, 48 h, read-out: Activity

Q: For O=C1NCC(c2cc3ccccc3[nH]c2=O)Nc2ccccc21 (stereo not drawn), which growth at 10 µM is on record?
A: The growth at 10 µM was 98.3%.

System: KM12
Experiment: Growth inhibition of human KM12 cells assessed as cell growth at 10 uM incubated for 48 hrs by sulforhodamine B assay relative to control
Type: functional
Conditions: KM12, 48 h, read-out: Activity

Q: Which growth at 10 µM does the source give for O=C1NCC(c2cc3ccccc3[nH]c2=O)Nc2ccccc21 (stereo not drawn) here?
A: Its growth at 10 µM is 103%.

System: SW-620
Experiment: Growth inhibition of human SW620 cells assessed as cell growth at 10 uM incubated for 48 hrs by sulforhodamine B assay relative to control
Type: functional
Conditions: SW-620, 48 h, read-out: Activity

Q: O=C1NCC(c2cc3ccccc3[nH]c2=O)Nc2ccccc21 (stereo not drawn) was tested. Which growth at 10 µM did it give?
A: The growth at 10 µM was 102%.

System: SF-539
Experiment: Growth inhibition of human SF539 cells assessed as cell growth at 10 uM incubated for 48 hrs by sulforhodamine B assay relative to control
Type: functional
Conditions: SF-539, 48 h, read-out: Activity

Q: O=C1NCC(c2cc3ccccc3[nH]c2=O)Nc2ccccc21 (stereo not drawn) was tested. Which growth at 10 µM did it give?
A: Its growth at 10 µM is 96.5%.

System: SNB-19
Experiment: Growth inhibition of human SNB19 cells assessed as cell growth at 10 uM incubated for 48 hrs by sulforhodamine B assay relative to control
Type: functional
Conditions: SNB-19, 48 h, read-out: Activity

Q: With O=C1NCC(c2cc3ccccc3[nH]c2=O)Nc2ccccc21 (stereo not drawn) as the compound, how does the growth at 10 µM read?
A: Its growth at 10 µM is 102%.

System: U-251
Experiment: Growth inhibition of human U251 cells assessed as cell growth at 10 uM incubated for 48 hrs by sulforhodamine B assay relative to control
Type: functional
Conditions: U-251, 48 h, read-out: Activity

Q: O=C1NCC(c2cc3ccccc3[nH]c2=O)Nc2ccccc21 (stereo not drawn) was tested. Which growth at 10 µM did it give?
A: Its growth at 10 µM is 102%.

System: Malme-3M
Experiment: Growth inhibition of human MALME-3M cells assessed as cell growth at 10 uM incubated for 48 hrs by sulforhodamine B assay relative to control
Type: functional
Conditions: read-out: Activity

Q: O=C1NCC(c2cc3ccccc3[nH]c2=O)Nc2ccccc21 (stereo not drawn) was tested. Which growth at 10 µM did it give?
A: Its growth at 10 µM is 96.8%.

System: SK-MEL-28
Experiment: Growth inhibition of human SK-MEL-28 cells assessed as cell growth at 10 uM incubated for 48 hrs by sulforhodamine B assay relative to control
Type: functional
Conditions: SK-MEL-28, 48 h, read-out: Activity

Q: With O=C1NCC(c2cc3ccccc3[nH]c2=O)Nc2ccccc21 (stereo not drawn) as the compound, how does the growth at 10 µM read?
A: Its growth at 10 µM is 103%.

System: UACC-62
Experiment: Growth inhibition of human UACC62 cells assessed as cell growth at 10 uM incubated for 48 hrs by sulforhodamine B assay relative to control
Type: functional
Conditions: UACC-62, 48 h, read-out: Activity

Q: Which growth at 10 µM does the source give for O=C1NCC(c2cc3ccccc3[nH]c2=O)Nc2ccccc21 (stereo not drawn) here?
A: Its growth at 10 µM is 98.3%.

System: OVCAR-3
Experiment: Growth inhibition of human OVCAR3 cells assessed as cell growth at 10 uM incubated for 48 hrs by sulforhodamine B assay relative to control
Type: functional
Conditions: OVCAR-3, 48 h, read-out: Activity

Q: O=C1NCC(c2cc3ccccc3[nH]c2=O)Nc2ccccc21 (stereo not drawn) was tested. Which growth at 10 µM did it give?
A: The growth at 10 µM was 111%.

System: OVCAR-4
Experiment: Growth inhibition of human OVCAR4 cells assessed as cell growth at 10 uM incubated for 48 hrs by sulforhodamine B assay relative to control
Type: functional
Conditions: OVCAR-4, 48 h, read-out: Activity

Q: For O=C1NCC(c2cc3ccccc3[nH]c2=O)Nc2ccccc21 (stereo not drawn), which growth at 10 µM is on record?
A: Its growth at 10 µM is 104%.

System: OVCAR-5
Experiment: Growth inhibition of human OVCAR5 cells assessed as cell growth at 10 uM incubated for 48 hrs by sulforhodamine B assay relative to control
Type: functional
Conditions: OVCAR-5, 48 h, read-out: Activity

Q: Which growth at 10 µM does the source give for O=C1NCC(c2cc3ccccc3[nH]c2=O)Nc2ccccc21 (stereo not drawn) here?
A: The growth at 10 µM was 91.2%.

System: OVCAR-8
Experiment: Growth inhibition of human OVCAR8 cells assessed as cell growth at 10 uM incubated for 48 hrs by sulforhodamine B assay relative to control
Type: functional
Conditions: OVCAR-8, 48 h, read-out: Activity

Q: O=C1NCC(c2cc3ccccc3[nH]c2=O)Nc2ccccc21 (stereo not drawn) was tested. Which growth at 10 µM did it give?
A: Its growth at 10 µM is 103%.

System: NCI/ADR-RES
Experiment: Growth inhibition of human NCI/ADR-RES cells assessed as cell growth at 10 uM incubated for 48 hrs by sulforhodamine B assay relative to control
Type: functional
Conditions: read-out: Activity

Q: O=C1NCC(c2cc3ccccc3[nH]c2=O)Nc2ccccc21 (stereo not drawn) was tested. Which growth at 10 µM did it give?
A: Its growth at 10 µM is 111%.

System: SK-OV-3
Experiment: Growth inhibition of human SKOV3 cells assessed as cell growth at 10 uM incubated for 48 hrs by sulforhodamine B assay relative to control
Type: functional
Conditions: SK-OV-3, 48 h, read-out: Activity

Q: With O=C1NCC(c2cc3ccccc3[nH]c2=O)Nc2ccccc21 (stereo not drawn) as the compound, how does the growth at 10 µM read?
A: Its growth at 10 µM is 89.9%.

System: A498
Experiment: Growth inhibition of human A498 cells assessed as cell growth at 10 uM incubated for 48 hrs by sulforhodamine B assay relative to control
Type: functional
Conditions: A498, 48 h, read-out: Activity

Q: O=C1NCC(c2cc3ccccc3[nH]c2=O)Nc2ccccc21 (stereo not drawn) was tested. Which growth at 10 µM did it give?
A: Its growth at 10 µM is 104%.

System: ACHN
Experiment: Growth inhibition of human ACHN cells assessed as cell growth at 10 uM incubated for 48 hrs by sulforhodamine B assay relative to control
Type: functional
Conditions: read-out: Activity

Q: How did the growth at 10 µM turn out when O=C1NCC(c2cc3ccccc3[nH]c2=O)Nc2ccccc21 (stereo not drawn) was run?
A: The growth at 10 µM was 99.7%.

System: RXF 393
Experiment: Growth inhibition of human RXF393 cells assessed as cell growth at 10 uM incubated for 48 hrs by sulforhodamine B assay relative to control
Type: functional
Conditions: RXF 393, 48 h, read-out: Activity

Q: With O=C1NCC(c2cc3ccccc3[nH]c2=O)Nc2ccccc21 (stereo not drawn) as the compound, how does the growth at 10 µM read?
A: Its growth at 10 µM is 90.7%.

System: SN12C
Experiment: Growth inhibition of human SN12C cells assessed as cell growth at 10 uM incubated for 48 hrs by sulforhodamine B assay relative to control
Type: functional
Conditions: read-out: Activity

Q: How did the growth at 10 µM turn out when O=C1NCC(c2cc3ccccc3[nH]c2=O)Nc2ccccc21 (stereo not drawn) was run?
A: The growth at 10 µM was 99.7%.

System: TK-10
Experiment: Growth inhibition of human TK10 cells assessed as cell growth at 10 uM incubated for 48 hrs by sulforhodamine B assay relative to control
Type: functional
Conditions: TK-10, 48 h, read-out: Activity

Q: With O=C1NCC(c2cc3ccccc3[nH]c2=O)Nc2ccccc21 (stereo not drawn) as the compound, how does the growth at 10 µM read?
A: Its growth at 10 µM is 87.8%.

System: UO-31
Experiment: Growth inhibition of human UO31 cells assessed as cell growth at 10 uM incubated for 48 hrs by sulforhodamine B assay relative to control
Type: functional
Conditions: UO-31, 48 h, read-out: Activity

Q: How did the growth at 10 µM turn out when O=C1NCC(c2cc3ccccc3[nH]c2=O)Nc2ccccc21 (stereo not drawn) was run?
A: Its growth at 10 µM is 76.8%.

System: T47D
Experiment: Growth inhibition of human T47D cells assessed as cell growth at 10 uM incubated for 48 hrs by sulforhodamine B assay relative to control
Type: functional
Conditions: read-out: Activity

Q: How did the growth at 10 µM turn out when O=C1NCC(c2cc3ccccc3[nH]c2=O)Nc2ccccc21 (stereo not drawn) was run?
A: The growth at 10 µM was 91%.

System: MDA-MB-468
Experiment: Growth inhibition of human MDA-MB-468 cells assessed as cell growth at 10 uM incubated for 48 hrs by sulforhodamine B assay relative to control
Type: functional
Conditions: MDA-MB-468, 48 h, read-out: Activity

Q: For O=C1NCC(c2cc3ccccc3[nH]c2=O)Nc2ccccc21 (stereo not drawn), which growth at 10 µM is on record?
A: Its growth at 10 µM is 97.5%.

— ChEMBL document CHEMBL4138146, “A Schmidt rearrangement-mediated synthesis of novel tetrahydro-benzo[1,4]diazepin-5-ones as potential anticancer and antiprotozoal agents” (Eur J Med Chem, 2017)
